Laboratory results: US7671181B2, “Polynucleotides encoding coccidian parasite casein kinase I, a chemotherapeutic target for antiprotozoal agents” (Merck Sharp & Dohme Corp., priority 2004, dated 2010)

How the values were obtained:
TgCDPK1 = target: T1, TgCDPK1 (Toxoplasma gondii, UniProt Q9BJF5); assay: CDPK assay with Syntide-2, T. gondii CDPK1; format: biochemical; conditions: 0.2 μM hymenialdisine or 1 μM purvalanol B; CKI phosphopeptide substrate
T1 construct: The TgCDPK1 open reading frame was amplified by PCR from a Toxoplasma cDNA library; made in house
T1 sequence (Q9BJF5 entry or part of it): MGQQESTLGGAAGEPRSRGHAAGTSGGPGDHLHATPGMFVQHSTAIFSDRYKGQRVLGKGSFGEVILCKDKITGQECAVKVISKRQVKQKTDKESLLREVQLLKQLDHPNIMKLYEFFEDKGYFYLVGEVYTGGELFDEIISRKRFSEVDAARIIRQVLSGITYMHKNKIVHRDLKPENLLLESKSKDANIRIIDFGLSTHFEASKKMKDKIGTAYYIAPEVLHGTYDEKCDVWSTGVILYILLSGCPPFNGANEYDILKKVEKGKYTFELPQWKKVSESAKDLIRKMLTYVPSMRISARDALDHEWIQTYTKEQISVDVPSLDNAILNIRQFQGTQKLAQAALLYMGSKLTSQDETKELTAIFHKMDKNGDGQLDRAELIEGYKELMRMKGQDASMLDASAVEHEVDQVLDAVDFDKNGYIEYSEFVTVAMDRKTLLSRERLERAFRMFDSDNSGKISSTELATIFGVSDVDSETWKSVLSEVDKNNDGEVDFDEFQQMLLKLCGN
Protocol: (§1) Protein kinase assays—Casein kinase activity was assayed essentially as described (Donald, R. G. K. et al., 2002, supra) using 96-well phosphocellulose plates (MAPH-NOB, Millipore; Billerica, Mass.) to capture ^33P-phosphorylated peptide or casein substrates. Kinase reactions were carried out in 40 μl volumes containing 25 mM Hepes, pH 7.4, 10 mM MgCl2, 20 mM β-glycerophosphate, 1 mM DTT, 250 μM substrate, 1 mg/mL BSA, 2 μM ATP, and 0.01 μM [γ-^33P]ATP (Perkin-Elmer, 3000 Ci/mmol). The reactions were initiated by the addition of enzyme and incubated at room temperature for 60 min. Casein (5% solution), partially dephosphorylated α-casein and β-casein were obtained from Sigma.
(§2) A variety of commercially available peptide substrates were evaluated. From Calbiochem (San Diego, Calif.): CKI substrate (RRKDLHDDEEDEAMSITA; SEQ ID NO:13); CKII substrate (RRADDSDDDDD; SEQ ID NO:14); Syntide-2 substrate (PLARTLSVAGLPGKK; SEQ ID NO:15); CaM kinase II substrate (281-291) (MHKNETVECLK; SEQ ID NO:16). From Promega: CKI substrate (DDDEESITRR; SEQ ID NO:17) and kemptide (LRRASLG; SEQ ID NO:18). From New England Biolabs (Beverly, Mass.): CKI phosphopeptide substrate (KRRRALS(p)VASLPGL; SEQ ID NO:19), and CKII substrate (RRREEETEEE; SEQ ID NO:20). PKG assays were performed with kemptide as substrate and 10 μM cGMP. CDPK was assayed with Syntide-2 substrate and in the presence of 100 μM CaCl2.
Purification of recombinant TgCDPK1 and TgPKG—The TgCDPK1 open reading frame was amplified by PCR from a Toxoplasma cDNA library, using primers based on the published sequence (Kieschnick et al., 2001, supra): sense primer, […] (SEQ ID NO:44); and, antisense primer, […] (SEQ ID NO:45). A C-terminal FLAG epitope tag was appended to the TgCDPK1 open reading frame by an additional round of PCR amplification (KOD polymerase) and the resulting DNA fragment was sub-cloned into a tubulin promoter expression vector (Donald and Liberator, 2002, supra). […]

EtCKIα = EtCKIα (Eimeria tenella, UniProt Q6QNL9); assay: Casein kinase assay, partially purified native EtCKIα; format: biochemical; conditions: native enzyme
EtCKIα, sequence (Q6QNL9 whole entry): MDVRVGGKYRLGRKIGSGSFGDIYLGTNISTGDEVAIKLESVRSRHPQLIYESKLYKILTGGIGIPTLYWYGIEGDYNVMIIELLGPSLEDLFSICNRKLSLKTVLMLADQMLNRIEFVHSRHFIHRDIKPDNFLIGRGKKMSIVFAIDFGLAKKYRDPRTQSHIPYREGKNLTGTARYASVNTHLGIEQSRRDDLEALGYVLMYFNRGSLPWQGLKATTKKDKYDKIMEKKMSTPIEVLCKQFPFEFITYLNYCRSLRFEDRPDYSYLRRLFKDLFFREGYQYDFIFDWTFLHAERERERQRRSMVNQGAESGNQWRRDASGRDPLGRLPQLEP
Protocol: as §1, §2
Partial purification of native EtCKIα—The inability to stably express recombinant EtCKIα in T. gondii provided impetus to purify native enzyme from E. tenella parasites (slide 5). A lysate was prepared from 2×10^10 unsporulated oocysts using previously published procedures (Gurnett, A. M. et al., 2002, supra). The first two steps of the purification scheme used were essentially scaled-up from the method described for the purification of native TgCKIα. The lysate was subjected to preparative HiLoad Q anion-exchange chromatography and fractions eluted with a NaCl gradient (0-1 M NaCl). […]

T. gondii = assay: Parasite growth inhibition, modified [3H]-uracil uptake assay in infected HFF cell monolayers; format: cell-based, Toxoplasma gondii; conditions: Toxoplasma gondii; uracil uptake assay, infected HFF cell monolayers; read-out: IC50
Source text: Host cells and parasite cultures—RH strain or RH ΔHXGPRT strain tachyzoites of T. gondii were maintained by serial passage in confluent monolayers of human foreskin fibroblasts (“HFF”) as described (Roos, D. S. et al., 1994, Methods Cell Biol. 45:27-63). A modified [^3H]-uracil uptake assay (Pfefferkorn, E. R. and Pfefferkorn, L. C., 1977, J. Protozool. 24:449-453) adapted for use in 96-well scintillation plates (Cytostar-T, Amersham; Piscataway, N.J.) was used to measure parasite growth inhibition. Each well, previously seeded with HFF cells, was inoculated with T. gondii tachyzoites (2×10^4) in 200 μl of growth media containing 2 μCi [5,6]-^3H-uracil (Perkin-Elmer NEN; Boston, Mass.) and serially diluted compound. Following incubation at 37° C. for 36-48 hours, tritium-incorporation into host cell monolayers was directly counted in a microplate scintillation counter (MicroBeta, PerkinElmer-Wallac).
The only other CDK inhibitor with sub-μM activity against T. gondii was indirubin-3′-monoxime, which gave an IC50 value of 500 nM.

CC(C)[C@H](CO)Nc1nc(Nc2ccc(C(=O)O)c(Cl)c2)c2ncn(C(C)C)c2n1 [purvalanol B]
sensitivity of phosphopeptide kinase activity of fractions 14 and 15 (TgCDPK1) (TgCDPK1): partial sensitivity
activity against / sensitivity of EtCKIα (EtCKIα): good activity
IC50 (T. gondii): 260 nM
